Common to all, as to type: cell-based
Assay [1] has as its system caspase-11. Nature of the assay: LPS-induced caspase-11 expression in BalbC/3T3 cells, Western blot. The method, then: FIG. 27 is a graph of the inhibition of caspase-11 induction by synthetic wedelolactone. BalbC/3T3 cells were treated with 0, 30 μM, 40 μM, 60μM, 80 μM or 100 μM of wedelolactone for 1 hour and LPS for an additional 6 hours. The induction of caspase-11 was measured by Western blot analysis and quantification.
To identify modulators of caspase-11 expression or activity, a tissue culture model of caspase-11 induction was generated. In this model, BalbC/3T3 cells normally express undetectable levels of caspase-11 biological activity, as measured by Western blot analysis. […] A caspase-11 modulatory compound may be administered to the cells prior to administration of LPS, and then caspase-11 biological activity may be measured at a specific time after addition of LPS to the culture media of the cells. A caspase-11 modulatory compound that suppresses the LPS-induced biological activity of caspase-11 is considered to be a compound that modulates not only caspase-11 expression, but also cell death or inflammation.
BalbC/3T3 cells were next preincubated with an ethanol extract of the plant Eclipta prostrata L. (454 g of Eclipta prostrata L. was extracted into 8 ml of ethanol; 5 μl of extract/ml of tissue culture media was applied to the cell culture) for 6 hours, followed by treatment with LPS for 6 hours, as described above. The level of caspase-11 protein expression was then measured.

Assay [2] concerns NF-κB. Nature of the assay: NF-κB-luciferase reporter in LPS-treated BalbC/3T3 cells. As for the experimental part: FIG. 5A is a graph of the effect of the active Eclipta prostrata L. fraction on induction of NF-κB and caspase-11. BalbC/3T3 cells were transfected with an NF-κB luciferase report construct and treated with the ethylacetate fraction of Eclipta prostrata L. ethylacetate extract (EA) or 11,12-dihydroxy coumestan (10 mg/ml) for 1 hour and then treated with 2 μg/ml LPS for 9 hours. Luciferase activity was then determined.
FIG. 28 is a graph of the inhibition of NF-κB activation by synthetic wedelolactone. BalbC/3T3 cells were transfected with NF-κB luciferase construct. Twelve hours later, cells were treated with 0, 20 μM, 40 μM, 60 μM, or 100 μM of wedelolactone for 1 hour and then 2 μg/ml LPS for additional 6 hours. Luciferase activity was then quantified.
Since caspase-11 is induced through the NF-κB pathway, wedelolactone (FIG. 3) may inhibit the activity of NF-κB. To examine this possibility, BalbC/3T3 cells were transfected with an NF-κB-luciferase reporter plasmid (containing an NF-κB response element).
The ability of synthetic wedelolactone to inhibit the activation of NF-κB induced by LPS was also assessed. BalbC/3T3 cells were transfected with a plasmid encoding an NF-κB-luciferase reporter protein in the presence of varying concentrations of wedelolactone. […] These experiments provided the final confirmation that wedelolactone is an inhibitor of NF-κB activation and caspase-11 induction. Thus, wedelolactone can be used to treat cell death diseases and inflammation.
(A reporter such as luciferase makes a cellular process visible.)

Assay [3] deals with NF-κB p105 mRNA. Nature of the assay: Atlas DNA array mRNA expression in LPS-treated BalbC/3T3 cells. The note with it: 100 μM 1 h, then LPS 6 h, versus LPS only. The text has this: (§1) One hundred μM wedelolactone reduced the expression of NF-κB p105 mRNA in LPS-treated BalbC/3T3 cells at the ratio of 1 to 8.
In assay [4] the test system is STAT1. The description is as above. To be noted: 100 μM 1 h, then LPS 6 h.
Description: as §1

The subject of assay [5] is STAT3. The assay is described as above. The note with it: 100 μM 1 h, then LPS 6 h.
Description: as §1

Two molecules from patent US6552071B2, “Methods for treating cell death diseases and inflammation” (President and Fellows of Harvard College, priority 1999, dated 2003) can be followed below.

In general, IC50 refers to the midpoint of a concentration-inhibition curve.

In the case of `O=c1oc2ccccc2c2oc3cc(O)c(O)cc3c12` [11,12-dihydroxy coumestan, reference compound], the “Inhibition of caspase-11 expression” value in assay [1] (general statement in Example 3) is on record as “does not inhibit caspase-11 expression”. Moreover, in assay [2] (1 hour pre-treatment, 2 μg/ml LPS 9 hours, coumestan 10 mg/ml), the “Inhibition of LPS induction of NF-κB luciferase activity (FIG. 5A)” value was “did not inhibit NF-κB induction”.
In the case of `COc1cc(O)c2c(c1)oc(=O)c1c3cc(O)c(O)cc3oc21` [wedelolactone], in assay [1] (70 μg/ml, 6 hour pre-treatment, then LPS), the “Suppression of LPS-induced caspase-11 expression” value is given as “suppressed caspase-11 expression”. Moreover, in assay [1] (BALB/c3T3, BalbC/3T3 cells, wedelolactone 1 hour, LPS additional 6 hours, read-out: IC50, inhibition of induction of caspase-11 by LPS), the concentration for half-maximal inhibition (IC50) is approximately 50 µM. In addition, the “Inhibition of LPS-induced activation of the NF-κB promoter (FIG. 28)” value in assay [2] (0-100 μM 1 hour, 2 μg/ml LPS 6 hours, same concentration range as caspase-11 inhibition) was “inhibited the activation of the NF-κB promoter”. Also, the “Inhibition of NF-κB transcriptional activity induced by LPS” value in assay [2] (60 and 100 μM) is “inhibited the NF-κB transcriptional activity”. For the same molecule, the “Reduction of NF-κB p105 mRNA expression, ratio” value in assay [3] lay in the range of 1 to 8. In addition, the “STAT1 expression level, % of control cells treated with LPS only” value in assay [4] amounted to 4%. For the same molecule, the “STAT3 expression level, % of control cells treated with LPS only” value in assay [5] is recorded as 30%.
